Test results published in US8269008B2, “Oxazolopyridine and isoxazolopyridine derivatives for use in the treatment of HIF-mediated conditions” (FibroGen, Inc., priority 2007, dated 2012).

Target: T1, HIF-PH2 (EGLN1) (Homo sapiens, UniProt Q9GZT9)
T1 construct: made in house; host or cells: insect Hi5 cells
Assay: HIF-PH assay (14CO2 capture, peptide-dependent turnover)
Format: biochemical
Details: for inhibition at 22.22 µM: Concentration 22.22 μM; for inhibition at 200 µM: Concentration 200.00 μM
Source text: Ketoglutaric acid α-[1-^14C]-sodium salt, alpha-ketoglutaric acid sodium salt, and HPLC purified peptide may be obtained from commercial sources, e.g., Perkin-Elmer (Wellesley Mass.), Sigma-Aldrich, and SynPep Corp. (Dublin Calif.), respectively. Peptides for use in the assay may be fragments of HIFα as described above or as disclosed in International Publication WO 2005/118836, incorporated by reference herein. For example, a HLF peptide for use in the HIF-PH assay is [methoxycoumarin]-DLDLEALAPYIPADDDFQL-amide. HIF-PH, e.g., HIF-PH2 (EGLN1), can be expressed in, e.g., insect Hi5 cells, and partially purified, e.g., through a SP ion exchange chromatography column. Enzyme activity is determined by capturing ^14CO2 using an assay described by Kivirikko and Myllyla (1982, Methods Enzymol. 82:245-304). Assay reactions contain 50 mM HEPES (pH 7.4), 100 μM α-ketoglutaric acid sodium salt, 0.30 μCi/mL ketoglutaric acid α-[1-^14C]-sodium salt, 40 μM FeSO4, 1 mM ascorbate, 1541.8 units/mL Catalase, with or without 50 μM peptide substrate and various concentrations of compound of the invention. Reactions are initiated by addition of HIF-PH enzyme.
The peptide-dependent percent turnover is calculated by subtracting percent turnover in the absence of peptide from percent turnover in the presence of substrate peptide. Percent inhibition and IC50 are calculated using peptide-dependent percent turnover at given inhibitor concentrations. Calculation of IC50 values for each inhibitor is conducted using GraFit software (Erithacus Software Ltd., Surrey UK). […]

T1 sequence (Q9GZT9 whole entry, species assumed): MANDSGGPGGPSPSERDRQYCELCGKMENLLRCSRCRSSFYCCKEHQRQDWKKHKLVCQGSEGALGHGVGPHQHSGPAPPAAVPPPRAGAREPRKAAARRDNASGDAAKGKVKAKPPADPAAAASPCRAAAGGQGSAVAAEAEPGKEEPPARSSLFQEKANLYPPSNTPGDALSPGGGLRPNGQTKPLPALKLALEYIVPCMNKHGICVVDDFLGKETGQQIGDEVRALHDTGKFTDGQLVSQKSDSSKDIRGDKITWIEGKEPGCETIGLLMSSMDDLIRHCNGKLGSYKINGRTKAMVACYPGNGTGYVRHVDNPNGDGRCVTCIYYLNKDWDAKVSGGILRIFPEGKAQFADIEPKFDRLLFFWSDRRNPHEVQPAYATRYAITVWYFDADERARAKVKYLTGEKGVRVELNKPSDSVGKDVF

inhibition at 22.22 µM [%] | inhibition at 200 µM [%] | SMILES
86.3 | – | O=C(O)CNC(=O)c1ncc2onc(-c3ccccc3OC(F)(F)F)c2c1O [Example 35, {[4-Hydroxy-3-(2-trifluoromethoxy-phenyl)-isoxazolo[5,4-c]pyridine-5-carbonyl]-amino}-acetic acid]
– | 100 | C#Cc1nc(C(=O)NCC(=O)O)c(O)c2onc(-c3ccccc3)c12 [Example 58, [(4-Ethynyl-7-hydroxy-3-phenyl-isoxazolo[4,5-c]pyridine-6-carbonyl)-amino]-acetic acid]
97.8 | – | O=C(O)CNC(=O)c1nc(C(F)(F)F)c2onc(-c3ccccc3)c2c1O [Example 38, [(4-Hydroxy-3-phenyl-7-trifluoromethyl-isoxazolo[5,4-c]pyridine-5-carbonyl)-amino]-acetic acid]
– | 100 | O=C(O)CNC(=O)c1nc(Cc2ccccc2)c2c(-c3ccccc3)noc2c1O [Example 62, [(4-Benzyl-7-hydroxy-3-phenyl-isoxazolo[4,5-c]pyridine-6-carbonyl)-amino]-acetic acid]
– | 99.8 | O=C(O)CNC(=O)c1ncc2nc(-c3ccccc3)oc2c1O [Example 1, [(7-Hydroxy-2-phenyl-oxazolo[4,5-c]pyridine-6-carbonyl)-amino]-acetic acid]
93.8 | – | Cc1nc(C(=O)NCC(=O)O)c(O)c2c(-c3ccc(F)cc3)noc12 [Example 26, {[3-(4-Fluoro-phenyl)-4-hydroxy-7-methyl-isoxazolo[5,4-c]pyridine-5-carbonyl]-amino}-acetic acid]
98 | – | O=C(O)CNC(=O)c1ncc2onc(-c3ccc(Cl)cc3Cl)c2c1O [Example 75, {[3-(2,4-Dichloro-phenyl)-4-hydroxy-isoxazolo[5,4-c]pyridine-5-carbonyl]-amino}-acetic acid]
94.4 | – | COc1ccc(-c2noc3c(C)nc(C(=O)NCC(=O)O)c(O)c23)cc1 [Example 74, {[4-Hydroxy-3-(4-methoxy-phenyl)-7-methyl-isoxazolo[5,4-c]pyridine-5-carbonyl]-amino}-acetic acid]
– | 99.4 | COc1ccc(-c2noc3c(O)c(C(=O)NCC(=O)O)nc(C#N)c23)cc1 [Example 53, {[4-Cyano-7-hydroxy-3-(4-methoxy-phenyl)-isoxazolo[4,5-c]pyridine-6-carbonyl]-amino}-acetic acid]
99.4 | – | O=C(O)CNC(=O)c1nc(Br)c2onc(-c3ccccc3)c2c1O [Example 41, [(7-Bromo-4-hydroxy-3-phenyl-isoxazolo[5,4-c]pyridine-5-carbonyl)-amino]-acetic acid]
97.5 | – | Cc1noc2c(-c3ccccc3)nc(C(=O)NCC(=O)O)c(O)c12 [Example 71, [(4-Hydroxy-3-methyl-7-phenyl-isoxazolo[5,4-c]pyridine-5-carbonyl)-amino]-acetic acid]
– | 100 | COc1ccc(-c2noc3c(O)c(C(=O)NCC(=O)O)nc(Cn4cccn4)c23)cc1 [Example 60, {[7-Hydroxy-3-(4-methoxy-phenyl)-4-pyrazol-1-ylmethyl-isoxazolo[4,5-c]pyridine-6-carbonyl]-amino}-acetic acid]
98.4 | – | O=C(O)CNC(=O)c1nc(-c2ccccc2)c2onc(-c3ccccc3)c2c1O [Example 13, [(4-Hydroxy-3,7-diphenyl-isoxazolo[5,4-c]pyridine-5-carbonyl)-amino]-acetic acid]
– | 100 | O=C(O)CNC(=O)c1ncc2nc(-c3ccc(F)cc3)oc2c1O [Example 2, {[2-(4-Fluoro-phenyl)-7-hydroxy-oxazolo[4,5-c]pyridine-6-carbonyl]-amino}-acetic acid]
99.1 | – | O=C(O)CNC(=O)c1ncc2onc(-c3cccc(OC(F)(F)F)c3)c2c1O [Example 32, {[4-Hydroxy-3-(3-trifluoromethoxy-phenyl)-isoxazolo[5,4-c]pyridine-5-carbonyl]-amino}-acetic acid]
– | 96.3 | O=C(O)CNC(=O)c1ncc2c(-c3ccc(Br)o3)noc2c1O [Example 49, {[3-(5-Bromo-furan-2-yl)-7-hydroxy-isoxazolo[4,5-c]pyridine-6-carbonyl]-amino}-acetic acid]
– | 98.7 | O=C(O)CNC(=O)c1nc(-c2ccccc2)c2nc(-c3ccccc3)oc2c1O [Example 5, [(7-Hydroxy-2,4-diphenyl-oxazolo[4,5-c]pyridine-6-carbonyl)-amino]-acetic acid]
97.4 | – | Cc1nc(C(=O)NCC(=O)O)c(O)c2c(-c3ccc(OC(F)(F)F)cc3)noc12 [Example 73, {[4-Hydroxy-7-methyl-3-(4-trifluoromethoxy-phenyl)-isoxazolo[5,4-c]pyridine-5-carbonyl]-amino}-acetic acid]

inhibition at 22.22 µM [%] | inhibition at 200 µM [%] | SMILES
– | 98.9 | COc1ccc(-c2noc3c(O)c(C(=O)NCC(=O)O)nc(C)c23)cc1 [Example 56, {[7-Hydroxy-3-(4-methoxy-phenyl)-4-methyl-isoxazolo[4,5-c]pyridine-6-carbonyl]-amino}-acetic acid]
98.4 | – | N#Cc1cccc(-c2noc3cnc(C(=O)NCC(=O)O)c(O)c23)c1 [Example 67, {[3-(3-Cyano-phenyl)-4-hydroxy-isoxazolo[5,4-c]pyridine-5-carbonyl]-amino}-acetic acid]
– | 99.4 | Cc1nc(C(=O)NCC(=O)O)c(O)c2c(-c3ccc(Cl)cc3)noc12 [Example 21, {[3-(4-Chloro-phenyl)-4-hydroxy-7-methyl-isoxazolo[5,4-c]pyridine-5-carbonyl]-amino}-acetic acid]
– | 99.5 | CCCCc1nc(C(=O)NCC(=O)O)c(O)c2oc(-c3ccccc3)nc12 [Example 7, [(4-Butyl-7-hydroxy-2-phenyl-oxazolo[4,5-c]pyridine-6-carbonyl)-amino]-acetic acid]
98.6 | – | O=C(O)CNC(=O)c1nc(C#Cc2ccccc2)c2c(-c3ccccc3)noc2c1O [Example 57, [(7-Hydroxy-3-phenyl-4-phenylethynyl-isoxazolo[4,5-c]pyridine-6-carbonyl)-amino]-acetic acid]
99.6 | – | O=C(O)CNC(=O)c1nc(-c2cccnc2)c2onc(-c3ccccc3)c2c1O [Example 33, [(4-Hydroxy-3-phenyl-7-pyridin-3-yl-isoxazolo[5,4-c]pyridine-5-carbonyl)-amino]-acetic acid]
94.6 | – | Cc1nc(C(=O)NCC(=O)O)c(O)c2c(C)noc12 [Example 72, [(4-Hydroxy-3,7-dimethyl-isoxazolo[5,4-c]pyridine-5-carbonyl)-amino]-acetic acid]
97.9 | – | O=C(O)CNC(=O)c1ncc2onc(-c3ccc(F)cc3)c2c1O [Example 19, {[3-(4-Fluoro-phenyl)-4-hydroxy-isoxazolo[5,4-c]pyridine-5-carbonyl]-amino}-acetic acid]
– | 99.2 | CCc1nc(C(=O)NCC(=O)O)c(O)c2oc(-c3ccccc3)nc12 [Example 4, [(4-Ethyl-7-hydroxy-2-phenyl-oxazolo[4,5-c]pyridine-6-carbonyl)-amino]-acetic acid]
– | 99 | O=C(O)CNC(=O)c1nc(C#Cc2ccccc2)c2nc(-c3ccccc3)oc2c1O [Example 6, [(7-Hydroxy-2-phenyl-4-phenylethynyl-oxazolo[4,5-c]pyridine-6-carbonyl)-amino]-acetic acid]
– | 99.3 | O=C(O)CNC(=O)c1nc(C2CC2)c2c(-c3cccs3)noc2c1O [Example 59, [(4-Cyclopropyl-7-hydroxy-3-thiophen-2-yl-isoxazolo[4,5-c]pyridine-6-carbonyl)-amino]-acetic acid]
99.4 | – | CS(=O)(=O)c1ccc(-c2noc3cnc(C(=O)NCC(=O)O)c(O)c23)cc1 [Example 76, {[4-Hydroxy-3-(4-methanesulfonyl-phenyl)-isoxazolo[5,4-c]pyridine-5-carbonyl]-amino}-acetic acid]
– | 97.3 | O=C(O)CNC(=O)c1nc(-c2ccc(F)cc2)c2nc(-c3ccccc3)oc2c1O [Example 8, {[4-(4-Fluoro-phenyl)-7-hydroxy-2-phenyl-oxazolo[4,5-c]pyridine-6-carbonyl]-amino}-acetic acid]
99.8 | – | O=C(O)CNC(=O)c1ncc2onc(-c3ccc(Oc4ccccc4)cc3)c2c1O [Example 69, {[4-Hydroxy-3-(4-phenoxy-phenyl)-isoxazolo[5,4-c]pyridine-5-carbonyl]-amino}-acetic acid]
– | 98.6 | O=C(O)CNC(=O)c1ncc2oc(-c3ccccc3)nc2c1O [Example 9, [(7-Hydroxy-2-phenyl-oxazolo[5,4-c]pyridine-6-carbonyl)-amino]-acetic acid]
98.7 | – | O=C(O)CNC(=O)c1nc(Br)c2onc(-c3ccc(F)cc3)c2c1O [Example 22, {[7-Bromo-3-(4-fluoro-phenyl)-4-hydroxy-isoxazolo[5,4-c]pyridine-5-carbonyl]-amino}-acetic acid]
– | 48.9 | Cc1nc(C(=O)NCC(=O)O)c(O)c2oc(-c3ccccc3)nc12 [Example 3, [(7-Hydroxy-4-methyl-2-phenyl-oxazolo[4,5-c]pyridine-6-carbonyl)-amino]-acetic acid]
